ChEMBL document CHEMBL4699602, “Stapled and Xenopus Glucagon-Like Peptide 1 (GLP-1)-Based Dual GLP-1/Gastrin Receptor Agonists with Improved Metabolic Benefits in Rodent Models of Obesity and Diabetes” (J Med Chem, 2020)
Activity calls are given as the source filed them. The rule behind the calls is not given here. *1 amine or outer side, *2 acyl side, *3 side chain or, on linkers, in order; H or OH if unused. Where a SMILES comes first, the peptide text is derived from it. Bridges are numbered along the chain shown (N, C = ends). [ ]: non-standard residue; d: D form. X4 = O=C(O)CCCCCCCCCCCCCCCCC(=O)NC(CCC(=O)NCCOCCOCC(=O)NCCOCCOCC(=O)NCCCCCCNC(=O)C(CCCCNC(=O)CCN1C(=O)CC([*:1])C1=O)NC(=O)CCN1C(=O)CC([*:2])C1=O)C(=O)O; X2 = O=C(O)CCCCCCCCCCCCCCCCC(=O)NC(CCC(=O)NCCOCCOCC(=O)NCCCCCCNC(=O)C(CCCCNC(=O)CCN1C(=O)CC([*:2])C1=O)NC(=O)CCN1C(=O)CC([*:1])C1=O)C(=O)O; X3 = O=C(O)CCCCCCCCCCCCCCCCC(=O)NC(CCC(=O)NCCOCCOCC(=O)NCCCCCCNC(=O)C(CCCCNC(=O)CCN1C(=O)CC([*:1])C1=O)NC(=O)CCN1C(=O)CC([*:2])C1=O)C(=O)O; X7 = O=C(O)CCCCCCCCCCCCCCCCC(=O)NCCOCCOCC(=O)NCCCCCCNC(=O)C(CCCCNC(=O)CCN1C(=O)CC([*:1])C1=O)NC(=O)CCN1C(=O)CC([*:2])C1=O; X8 = O=C(O)CCCCCCCCCCCCCCCCC(=O)NCCOCCOCC(=O)NCCCCCCNC(=O)C(CCCCNC(=O)CCN1C(=O)CC([*:2])C1=O)NC(=O)CCN1C(=O)CC([*:1])C1=O; X1 = CCCCCCCCCCCCCCCC(=O)NCCCCCCNC(=O)C(CCCCNC(=O)CCN1C(=O)CC([*:1])C1=O)NC(=O)CCN1C(=O)CC([*:2])C1=O; X6 = CCCCCCCCCCCCCCCC(=O)NCCCCCCNC(=O)C(CCCCNC(=O)CCN1C(=O)CC([*:2])C1=O)NC(=O)CCN1C(=O)CC([*:1])C1=O; Aib = CC(C)(N)C(=O)O

How the values were obtained:
Mus musculus = experiment: Hypoglycemic activity in ICR mouse assessed as decrease in blood glucose concentration at 25 nmol/kg, ip dosed 15 mins before test and measured up to 120 mins by OGTT method; assay type: functional, organism-based
[1] = target: T1, Glucagon-like peptide 1 receptor (Homo sapiens, UniProt P43220); experiment: Agonist activity at human GLP-1R expressed in HEK293 cells assessed as stimulation of cAMP accumulation incubated for 20 mins; assay type: functional, cell-based
T1 sequence (P43220 whole entry): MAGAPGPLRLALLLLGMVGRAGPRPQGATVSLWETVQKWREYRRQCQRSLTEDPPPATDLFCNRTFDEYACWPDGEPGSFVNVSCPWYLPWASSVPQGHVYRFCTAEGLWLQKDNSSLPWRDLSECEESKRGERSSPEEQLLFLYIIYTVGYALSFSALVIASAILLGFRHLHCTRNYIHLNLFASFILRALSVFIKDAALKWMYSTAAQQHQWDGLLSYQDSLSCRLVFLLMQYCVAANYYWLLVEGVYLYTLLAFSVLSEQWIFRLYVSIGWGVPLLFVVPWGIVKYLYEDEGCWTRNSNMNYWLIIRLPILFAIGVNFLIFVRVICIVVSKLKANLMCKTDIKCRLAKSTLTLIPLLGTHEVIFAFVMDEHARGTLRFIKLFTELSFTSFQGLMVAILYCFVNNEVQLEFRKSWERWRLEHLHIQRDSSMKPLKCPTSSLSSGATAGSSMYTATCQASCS

[2] = target: T1, Glucagon-like peptide 1 receptor; experiment: Ratio of EC50 for agonist activity at human GLP-1R expressed in HEK293 cells in presence of 4.4% HSA to EC50 for agonist activity at human GLP-1R expressed in HEK293 cells in presence of 0% HSA; assay type: cell-based
[3] = target: T1, Glucagon-like peptide 1 receptor; experiment: Agonist activity at human GLP-1R expressed in HEK293 cells assessed as stimulation of cAMP accumulation incubated for 20 mins in presence of 0% HSA; assay type: functional, cell-based
[4] = target: T1, Glucagon-like peptide 1 receptor; experiment: Agonist activity at human GLP-1R expressed in HEK293 cells assessed as stimulation of cAMP accumulation incubated for 20 mins in presence of 4.4% HSA; assay type: functional, cell-based

Ratio EC50 [2]	EC50 [3]	EC50 [4]	Molecule	Activity (Mus musculus)	EC50 [1]
–	–	–	CC[C@H](C)[C@H](NC(=O)[C@H](Cc1ccccc1)NC(=O)[C@H](CCC(=O)O)NC(=O)[C@H](CCCCN)NC(=O)[C@H](C)NC(=O)[C@H](C)NC(=O)[C@H](CCC(N)=O)NC(=O)CNC(=O)[C@H](CCC(=O)O)NC(=O)[C@H](CC(C)C)NC(=O)[C@H](Cc1ccc(O)cc1)NC(=O)[C@H](CO)NC(=O)[C@H](CO)NC(=O)[C@@H](NC(=O)[C@H](CC(=O)O)NC(=O)[C@H](CO)NC(=O)[C@@H](NC(=O)[C@H](Cc1ccccc1)NC(=O)[C@@H](NC(=O)CNC(=O)[C@H](CCC(=O)O)NC(=O)[C@H](C)NC(=O)[C@@H](N)Cc1cnc[nH]1)[C@@H](C)O)[C@@H](C)O)C(C)C)C(=O)N[C@@H](C)C(=O)N[C@@H](Cc1c[nH]c2ccccc12)C(=O)N[C@@H](CC(C)C)C(=O)N[C@H](C(=O)N[C@@H](CCCCN)C(=O)NCC(=O)N[C@@H](CCCNC(=N)N)C(=O)O)C(C)C	Active	–
–	–	–	CC[C@H](C)[C@H](NC(=O)[C@H](CC(C)C)NC(=O)[C@H](Cc1c[nH]c2ccccc12)NC(=O)[C@H](CCC(=O)O)NC(=O)[C@@H](NC(=O)[C@H](Cc1ccccc1)NC(=O)[C@H](CS)NC(=O)[C@H](CCCCN)NC(=O)[C@H](C)NC(=O)[C@H](C)NC(=O)[C@H](CCC(=O)O)NC(=O)[C@H](CCC(=O)O)NC(=O)[C@H](CCC(=O)O)NC(=O)[C@H](CS)NC(=O)[C@H](Cc1ccc(O)cc1)NC(=O)[C@H](CCC(=O)O)NC(=O)[C@@H](NC(=O)[C@@H](NC(=O)[C@H](CC(=O)O)NC(=O)[C@H](CC(N)=O)NC(=O)[C@@H](NC(=O)[C@H](Cc1ccc(O)cc1)NC(=O)[C@@H](NC(=O)CNC(=O)[C@H](CCC(=O)O)NC(=O)C(C)(C)NC(=O)[C@@H](N)Cc1c[nH]cn1)[C@@H](C)O)[C@@H](C)O)C(C)C)[C@@H](C)O)[C@@H](C)CC)C(=O)N[C@@H](CCCCN)C(=O)NCC(=O)N[C@@H](CCCCN)C(=O)N1CCC[C@H]1C(=O)N[C@@H](CO)C(=O)N[C@@H](CO)C(=O)NCC(=O)N[C@@H](C)C(=O)N1CCC[C@H]1C(=O)N1CCC[C@H]1C(=O)N1CCC[C@H]1C(=O)N[C@@H](CO)C(N)=O (HELM PEPTIDE1{H.[Aib].E.G.T.Y.T.N.D.V.T.E.Y.C.E.E.E.A.A.K.C.F.I.E.W.L.I.K.G.K.P.S.S.G.A.P.P.P.S.[am]}$$$$V2.0)	Active	0.042 nM
–	–	–	CC[C@H](C)[C@H](NC(=O)[C@H](CC(C)C)NC(=O)[C@H](Cc1c[nH]c2ccccc12)NC(=O)[C@H](CCC(=O)O)NC(=O)[C@@H](NC(=O)[C@H](Cc1ccccc1)NC(=O)[C@H](CS)NC(=O)[C@H](CCCCN)NC(=O)[C@H](C)NC(=O)[C@H](C)NC(=O)[C@H](CCC(=O)O)NC(=O)[C@H](CCC(=O)O)NC(=O)[C@H](CCC(=O)O)NC(=O)[C@H](CS)NC(=O)[C@H](Cc1ccc(O)cc1)NC(=O)[C@H](CCC(=O)O)NC(=O)[C@@H](NC(=O)[C@@H](NC(=O)[C@H](CC(=O)O)NC(=O)[C@H](CC(N)=O)NC(=O)[C@@H](NC(=O)[C@H](Cc1ccc(O)cc1)NC(=O)[C@@H](NC(=O)CNC(=O)[C@H](CCC(=O)O)NC(=O)C(C)(C)NC(=O)[C@@H](N)Cc1c[nH]cn1)[C@@H](C)O)[C@@H](C)O)C(C)C)[C@@H](C)O)[C@@H](C)CC)C(=O)N[C@@H](CCCCN)C(=O)NCC(=O)N[C@@H](CCCCN)C(N)=O (HELM PEPTIDE1{H.[Aib].E.G.T.Y.T.N.D.V.T.E.Y.C.E.E.E.A.A.K.C.F.I.E.W.L.I.K.G.K.[am]}$$$$V2.0)	Active	0.066 nM
–	–	–	CC[C@H](C)[C@H](NC(=O)[C@H](CC(C)C)NC(=O)[C@H](Cc1c[nH]c2ccccc12)NC(=O)[C@H](CCC(=O)O)NC(=O)[C@@H](NC(=O)[C@H](Cc1ccccc1)NC(=O)[C@H](CS)NC(=O)[C@H](CCCCN)NC(=O)[C@H](C)NC(=O)[C@H](C)NC(=O)[C@H](CCC(=O)O)NC(=O)[C@H](CCC(=O)O)NC(=O)[C@H](CCC(=O)O)NC(=O)[C@H](CC(C)C)NC(=O)[C@H](Cc1ccc(O)cc1)NC(=O)[C@H](CCC(=O)O)NC(=O)[C@@H](NC(=O)[C@@H](NC(=O)[C@H](CC(=O)O)NC(=O)[C@H](CC(N)=O)NC(=O)[C@@H](NC(=O)[C@H](Cc1ccc(O)cc1)NC(=O)[C@@H](NC(=O)CNC(=O)[C@H](CCC(=O)O)NC(=O)C(C)(C)NC(=O)[C@@H](N)Cc1c[nH]cn1)[C@@H](C)O)[C@@H](C)O)C(C)C)[C@@H](C)O)[C@@H](C)CC)C(=O)N[C@@H](CS)C(=O)NCC(=O)N[C@@H](CCCCN)C(=O)N1CCC[C@H]1C(=O)N[C@@H](CO)C(=O)N[C@@H](CO)C(=O)NCC(=O)N[C@@H](C)C(=O)N1CCC[C@H]1C(=O)N1CCC[C@H]1C(=O)N1CCC[C@H]1C(=O)N[C@@H](CO)C(N)=O (HELM PEPTIDE1{H.[Aib].E.G.T.Y.T.N.D.V.T.E.Y.L.E.E.E.A.A.K.C.F.I.E.W.L.I.C.G.K.P.S.S.G.A.P.P.P.S.[am]}$$$$V2.0)	Active	0.052 nM
95.8	0.19 nM	18.2 nM	CC[C@H](C)[C@@H]1NC(=O)[C@H](CC(C)C)NC(=O)[C@H](Cc2c[nH]c3ccccc23)NC(=O)[C@H](CCC(=O)O)NC(=O)[C@H]([C@@H](C)CC)NC(=O)[C@H](Cc2ccccc2)NC(=O)[C@@H](NC(=O)[C@H](CCCCN)NC(=O)[C@H](C)NC(=O)[C@H](C)NC(=O)[C@H](CCC(=O)O)NC(=O)[C@H](CCC(=O)O)NC(=O)[C@H](CCC(=O)O)NC(=O)[C@H](CC(C)C)NC(=O)[C@H](Cc2ccc(O)cc2)NC(=O)[C@H](CCC(=O)O)NC(=O)[C@@H](NC(=O)[C@@H](NC(=O)[C@H](CC(=O)O)NC(=O)[C@H](CC(N)=O)NC(=O)[C@@H](NC(=O)[C@H](Cc2ccc(O)cc2)NC(=O)[C@@H](NC(=O)CNC(=O)[C@H](CCC(=O)O)NC(=O)C(C)(C)NC(=O)[C@@H](N)Cc2c[nH]cn2)[C@@H](C)O)[C@@H](C)O)C(C)C)[C@@H](C)O)CSC2CC(=O)N(CCC(=O)NC(C(=O)NCCCCCCNC(=O)COCCOCCNC(=O)COCCOCCNC(=O)CCC(NC(=O)CCCCCCCCCCCCCCCCC(=O)O)C(=O)O)CCCCNC(=O)CCN3C(=O)CC(SC[C@@H](C(=O)NCC(=O)N[C@@H](CCCCN)C(N)=O)NC1=O)C3=O)C2=O (some centres undefined) (HELM PEPTIDE1{H.[Aib].E.G.T.Y.T.N.D.V.T.E.Y.L.E.E.E.A.A.K.C.F.I.E.W.L.I.C.G.K.[am]}|CHEM1{[O=C(O)CCCCCCCCCCCCCCCCC(=O)NC(CCC(=O)NCCOCCOCC(=O)NCCOCCOCC(=O)NCCCCCCNC(=O)C(CCCCNC(=O)CCN1C(=O)CC([*:2])C1=O)NC(=O)CCN1C(=O)CC([*:1])C1=O)C(=O)O]}$PEPTIDE1,CHEM1,21:R3-1:R1|PEPTIDE1,CHEM1,28:R3-1:R2$$$V2.0)	–	–
13.7	0.19 nM	2.6 nM	CC[C@H](C)[C@@H]1NC(=O)[C@H](CC(C)C)NC(=O)[C@H](Cc2c[nH]c3ccccc23)NC(=O)[C@H](CCC(=O)O)NC(=O)[C@H]([C@@H](C)CC)NC(=O)[C@H](Cc2ccccc2)NC(=O)[C@@H](NC(=O)[C@H](CCCCN)NC(=O)[C@H](C)NC(=O)[C@H](C)NC(=O)[C@H](CCC(=O)O)NC(=O)[C@H](CCC(=O)O)NC(=O)[C@H](CCC(=O)O)NC(=O)[C@H](CC(C)C)NC(=O)[C@H](Cc2ccc(O)cc2)NC(=O)[C@H](CCC(=O)O)NC(=O)[C@@H](NC(=O)[C@@H](NC(=O)[C@H](CC(=O)O)NC(=O)[C@H](CC(N)=O)NC(=O)[C@@H](NC(=O)[C@H](Cc2ccc(O)cc2)NC(=O)[C@@H](NC(=O)CNC(=O)[C@H](CCC(=O)O)NC(=O)C(C)(C)NC(=O)[C@@H](N)Cc2c[nH]cn2)[C@@H](C)O)[C@@H](C)O)C(C)C)[C@@H](C)O)CSC2CC(=O)N(CCC(=O)NC(C(=O)NCCCCCCNC(=O)COCCOCCNC(=O)CCCCCCCCCCCCCCCCC(=O)O)CCCCNC(=O)CCN3C(=O)CC(SC[C@@H](C(=O)NCC(=O)N[C@@H](CCCCN)C(N)=O)NC1=O)C3=O)C2=O (some centres undefined) (HELM PEPTIDE1{H.[Aib].E.G.T.Y.T.N.D.V.T.E.Y.L.E.E.E.A.A.K.C.F.I.E.W.L.I.C.G.K.[am]}|CHEM1{[O=C(O)CCCCCCCCCCCCCCCCC(=O)NCCOCCOCC(=O)NCCCCCCNC(=O)C(CCCCNC(=O)CCN1C(=O)CC([*:2])C1=O)NC(=O)CCN1C(=O)CC([*:1])C1=O]}$PEPTIDE1,CHEM1,21:R3-1:R1|PEPTIDE1,CHEM1,28:R3-1:R2$$$V2.0)	–	–
15.1	0.093 nM	1.4 nM	H-H[Aib]EGTYTNDVTEYCEEEAAKCFIEWLIKGKPSSGAPPSKKKKKK-NH2 (linker 14-21 via X1)	–	–
40.6	0.16 nM	6.5 nM	H-H[Aib]EGTYTNDVTEYCEEEAAKCFIEWLIKGKPSSGAPPSKKKKKK-NH2 (linker 14-21 via X3)	–	–
84.7	0.15 nM	12.7 nM	H-H[Aib]EGTYTNDVTEYCEEEAAKCFIEWLIKGKPSSGAPPSKKKKKK-NH2 (linker 14-21 via X4)	–	–
14	0.1 nM	1.4 nM	H-H[Aib]EGTYTNDVTEYCEEEAAKCFIEWLIKGKPSSGAPPSKKKKKK-NH2 (linker 14-21 via X7)	–	–
38.3	0.18 nM	6.9 nM	H-H[Aib]EGTYTNDVTEYLEEEAAKCFIEWLICGKPSSGAPPSKKKKKK-NH2 (linker 21-28 via X2)	–	–
13.6	0.14 nM	1.9 nM	H-H[Aib]EGTYTNDVTEYLEEEAAKCFIEWLICGKPSSGAPPSKKKKKK-NH2 (linker 21-28 via X6)	–	–
12.5	0.12 nM	1.5 nM	H-H[Aib]EGTYTNDVTEYLEEEAAKCFIEWLICGKPSSGAPPSKKKKKK-NH2 (linker 21-28 via X8)	–	–
